Read-outs that look alike come from different tables or passages of the source.
Assays:
[1] = target: human D2S dopamine (hD2S-DA) receptors (Homo sapiens, UniProt P14416); experiment: Competition radioligand binding, hD2s DA ([3H]Spiperone)
Method: (§1) Cell pellets were homogenized in approximately 50 mL of homogenization buffer (buffer A) containing: 50 mM Tris (pH 7.4), 2 mM EGTA, 0.32 M sucrose, 10 μM PMSF, 1 μg/mL leupeptin, 5 μg/mL Pepstatin A, and 5 μg/mL aprotinin using an UltraTurax homogenizer (Tekmar Company, Cincinnati, Ohio) at 80% maximum setting three times for 10 sec. Cell pellets were centrifuged at 4° C. at 1,500×g for 10 min in a Beckman GS-6R centrifuge. Pellets were resuspended in buffer A, homogenized and centrifuged as described above. Pooled supernatants were transferred to centrifuge bottles and centrifuged at 4° C. at 20,000×g for 30 min in a Beckman J2-HS centrifuge. Cell pellets were resuspended in buffer A and were centrifuged at 4° C. at 20,000×g for 30 min. Cell pellets were resuspended in buffer A and stored at −70° C. in aliquots of 2.5 mg/mL total membrane protein. Total membrane protein was assessed utilizing a BCA kit (Pierce; Rockford, Ill.).
(§2) Filters were washed three times with ice-cold phosphate-buffered saline (PBS) wash buffer containing 50 mM NaPO4 (pH 7.4), 0.9% NaCl, 2 mM MgCl2 and 0.02% NaN3. The filters were then counted using liquid scintillation in a Packard Topcount scintillation counter.
(§3) Data Analysis: Radioligand binding experiments were analyzed with Prism™ (GraphPad, San Diego, Calif.), a computer graphics and statistics program. IC50 values and Hill slopes for compounds were generated by nonlinear regression using Prism™.

[2] = target: T1, human 5-HT7B (h5-HT7b) receptors (Homo sapiens, UniProt P34969); experiment: Competition radioligand binding, h5-HT7b ([3H]5-CT); conditions: membranes of HEK 293 cells, 2 hr 37° C., read-out: Ki (nM) 5-HT7
T1 construct: expressed in transfected cells

[3] = target: T2, human 5-HT6 (h5-HT6) receptors (Homo sapiens, UniProt P50406); experiment: Competition radioligand binding, h5-HT6 ([3H]LSD); conditions: membranes of HEK-293 cells, 1 hr RT
T2 construct: purchased Receptor Biology, Inc. (Beltsville, Md.); host or cells: HEK-293 cells

human 5-HT2a receptors = human 5-HT2a receptors (Homo sapiens, UniProt P28223); experiment: Competition radioligand binding, h5-HT2a ([3H]Ketanserin)
Method: The 5-HT receptor binding properties of the compounds are identified by competitive radioligand binding assays wherein membranes prepared from transfected cells expressing the 5-HT receptor subtype of interest. “Binding constants” refers herein to Ki values measured by inhibition of the binding of radiolabelled ligands that are selective for the 5-HT receptor type being studied.
as §1, §2, §3

human 5-HT1a receptors = target: T3, human 5-HT1a receptors (Homo sapiens, UniProt P08908); experiment: Competition radioligand binding, h5-HT1a ([3H]5-CT); conditions: membranes of CHO K1 cells, 1 hr RT
T3 construct: expressed in transfected cells; host or cells: CHO K1 cells
T3 sequence (P08908 1-422): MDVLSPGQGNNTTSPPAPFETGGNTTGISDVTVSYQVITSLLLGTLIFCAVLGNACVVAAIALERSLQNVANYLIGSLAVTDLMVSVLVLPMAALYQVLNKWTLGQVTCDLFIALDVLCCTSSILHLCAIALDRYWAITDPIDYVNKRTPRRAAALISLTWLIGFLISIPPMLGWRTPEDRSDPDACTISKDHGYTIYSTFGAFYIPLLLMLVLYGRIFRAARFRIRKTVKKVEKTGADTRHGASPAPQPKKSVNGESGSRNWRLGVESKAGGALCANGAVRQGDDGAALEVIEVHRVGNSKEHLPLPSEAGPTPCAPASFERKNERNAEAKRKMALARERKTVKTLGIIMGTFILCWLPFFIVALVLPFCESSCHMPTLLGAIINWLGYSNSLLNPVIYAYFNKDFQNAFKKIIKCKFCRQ

[4] = read-out: Ki (nM) D2, membranes of A9 L cells, [3H]Spiperone, 2 hr RT
[5] = read-out: Ki (nM) 5-HT2A, membranes of CHO K1 cells, [3H]Ketanserin, 1 hr 37° C.

T1 sequence (P34969 1-432 limits assumed): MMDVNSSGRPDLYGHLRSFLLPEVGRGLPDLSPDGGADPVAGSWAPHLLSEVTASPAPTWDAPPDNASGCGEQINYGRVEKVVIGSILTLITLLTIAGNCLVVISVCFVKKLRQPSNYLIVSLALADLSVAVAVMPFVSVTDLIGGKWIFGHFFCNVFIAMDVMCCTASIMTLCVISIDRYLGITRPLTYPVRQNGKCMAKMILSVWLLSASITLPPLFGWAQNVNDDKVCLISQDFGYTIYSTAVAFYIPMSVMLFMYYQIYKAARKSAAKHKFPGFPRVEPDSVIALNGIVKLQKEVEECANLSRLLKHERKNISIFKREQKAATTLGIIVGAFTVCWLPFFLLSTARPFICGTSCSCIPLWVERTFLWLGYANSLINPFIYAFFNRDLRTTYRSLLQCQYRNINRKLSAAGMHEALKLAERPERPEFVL
Sequence of human D2S dopamine (hD2S-DA) receptors (P14416 1-414 isoform P14416-2): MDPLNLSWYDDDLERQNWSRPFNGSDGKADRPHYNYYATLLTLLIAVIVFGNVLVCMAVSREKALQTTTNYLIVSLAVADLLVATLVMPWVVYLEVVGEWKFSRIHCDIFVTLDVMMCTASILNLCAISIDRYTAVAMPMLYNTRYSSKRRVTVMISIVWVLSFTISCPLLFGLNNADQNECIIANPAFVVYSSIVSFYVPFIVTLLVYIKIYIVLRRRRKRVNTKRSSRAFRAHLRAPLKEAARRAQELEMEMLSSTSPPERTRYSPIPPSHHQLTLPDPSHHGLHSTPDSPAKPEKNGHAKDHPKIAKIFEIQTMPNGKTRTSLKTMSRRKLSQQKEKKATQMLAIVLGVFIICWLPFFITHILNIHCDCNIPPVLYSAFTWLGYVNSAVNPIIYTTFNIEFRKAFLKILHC
Sequence of human 5-HT2a receptors (P28223 whole entry): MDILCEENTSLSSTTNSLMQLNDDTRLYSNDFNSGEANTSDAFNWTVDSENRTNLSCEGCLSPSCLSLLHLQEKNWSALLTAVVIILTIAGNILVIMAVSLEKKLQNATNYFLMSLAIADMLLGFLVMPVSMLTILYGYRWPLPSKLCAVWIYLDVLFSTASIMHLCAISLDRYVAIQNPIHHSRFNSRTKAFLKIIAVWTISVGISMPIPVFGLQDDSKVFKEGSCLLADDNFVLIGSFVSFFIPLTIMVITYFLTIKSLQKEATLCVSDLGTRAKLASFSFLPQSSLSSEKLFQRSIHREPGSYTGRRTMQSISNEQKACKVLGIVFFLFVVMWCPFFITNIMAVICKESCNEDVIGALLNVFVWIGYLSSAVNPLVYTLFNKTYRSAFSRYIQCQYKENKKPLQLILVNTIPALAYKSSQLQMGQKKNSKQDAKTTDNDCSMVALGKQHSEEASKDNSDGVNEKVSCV
T2 sequence (P50406 whole entry): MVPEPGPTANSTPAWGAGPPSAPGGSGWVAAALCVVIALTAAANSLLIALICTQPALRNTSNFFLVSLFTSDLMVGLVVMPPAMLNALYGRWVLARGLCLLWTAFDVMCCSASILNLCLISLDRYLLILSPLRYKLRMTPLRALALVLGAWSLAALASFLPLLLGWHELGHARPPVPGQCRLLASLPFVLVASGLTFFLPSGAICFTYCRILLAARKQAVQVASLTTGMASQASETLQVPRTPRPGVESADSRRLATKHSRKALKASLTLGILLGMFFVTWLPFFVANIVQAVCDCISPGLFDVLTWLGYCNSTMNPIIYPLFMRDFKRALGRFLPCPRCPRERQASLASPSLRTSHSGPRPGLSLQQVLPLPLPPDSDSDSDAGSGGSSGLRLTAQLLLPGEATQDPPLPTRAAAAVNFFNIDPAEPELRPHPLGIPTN

Row | Ki [1] [nM] | Ki [2] [nM] | Ki [3] [nM] | Ki (human 5-HT2a receptors) [nM] | Ki (human 5-HT1a receptors) [nM] | Molecule | Ki [1, 4] [nM] | Ki (human 5-HT2a receptors; [5]) [nM]
1 | 110 | 9.9 | 41 | 20 | – | Cc1ccc(CN(CCC2CCCN2C)Cc2ccc(C)cc2)cc1 (racemic) [Example 4] | – | –
2 | – | 4.7 | 42 | 39 | 540 | CN1CCCC1CCN(Cc1ccc(Cl)cc1)Cc1ccc(Cl)cc1 (racemic) [Example 5] | – | –
3 | 360 | 24 | 74 | – | – | CN1CCCC1CCN(Cc1ccccc1)Cc1ccccc1 (racemic) [Example 12] | – | –
4 | 200 | 80 | 53 | 29 | 1780 | Cc1ccc(CN(CC[C@H]2CCCN2C)Cc2ccc(C)cc2)cc1 [Example 6] | – | –
5 | 221 | 2.1 | 63 | 17 | 2850 | Cc1ccc(CN(CC[C@@H]2CCCN2C)Cc2ccc(C)cc2)cc1 [Example 7] | – | –
6 | – | 5100 | – | – | – | CN1CCC[C@H]1CCN(Cc1cccc(C(N)=O)c1)Cc1cccc(C(N)=O)c1 [Example 9] | – | –
7 | – | 1000 | – | – | – | CN1CCC[C@@H]1CCN(Cc1cccc(O)c1)Cc1cccc(O)c1 [Example 10] | – | –
8 | 220 | 8.3 | 39 | 44 | > 4000 | Cc1ccc(CN(CC[C@@H]2CCCN2C)Cc2ccccc2)cc1 [Example 22] | – | –
9 | 160 | 28 | 47 | 16 | > 4000 | CN1CCCC1CCN(Cc1ccccc1)Cc1c(Cl)cccc1Cl (stereo not shown) [Example 23] | – | –
10 | 410 | 31 | 72 | 20 | > 4000 | Cc1ccc(C)c(CN(CCC2CCCN2C)Cc2ccccc2)c1 (stereo not shown) [Example 24] | – | –
11 | 570 | 45 | 99 | 87 | > 4000 | CN1CCCC1CCN(Cc1ccccc1)Cc1cccc2ccccc12 (stereo not shown) [Example 25] | – | –
12 | 400 | 18 | 20 | – | – | CN1CCCC1CCN(Cc1ccccc1)Cc1ccc(F)cc1 (stereo not shown) [Example 26] | – | –
13 | – | 150 | – | – | – | CSc1ccc(CN(CCC2CCCN2C)Cc2ccccc2)cc1 (stereo not shown) [Example 27] | – | –
14 | 270 | 19 | 91 | 73 | > 4000 | CCc1ccc(CN(CCC2CCCN2C)Cc2ccccc2)cc1 (stereo not shown) [Example 28] | – | –
15 | 1010 | 23 | 33 | 69 | > 4000 | CN1CCCC1CCN(Cc1ccccc1)Cc1cccc(O)c1 (stereo not shown) [Example 29] | – | –
16 | 660 | 20 | 53 | 60 | > 4000 | Cc1cccc(CN(CCC2CCCN2C)Cc2ccccc2)c1 (stereo not shown) [Example 30] | – | –

Row | Ki [1] [nM] | Ki [2] [nM] | Ki [3] [nM] | Ki (human 5-HT2a receptors) [nM] | Ki (human 5-HT1a receptors) [nM] | Molecule | Ki [1, 4] [nM] | Ki (human 5-HT2a receptors; [5]) [nM]
17 | 850 | 36 | 71 | 11 | – | CC(C)c1ccc(CN(CCC2CCCN2C)Cc2ccccc2)cc1 (stereo not shown) [Example 32] | – | –
18 | 780 | 56 | 35 | 51 | > 4000 | COc1cccc(CN(CCC2CCCN2C)Cc2ccccc2)c1 (stereo not shown) [Example 33] | – | –
19 | 1750 | 8.6 | 315 | 61 | 825 | CN1CCC[C@H]1CCN(Cc1cccc(O)c1)Cc1ccc2ccccc2c1 [Example 34] | – | –
20 | – | 200 | – | – | – | CN1CCC[C@H]1CCN(CCc1ccccc1)Cc1ccc(Cl)cc1 [Example 38] | – | –
21 | 420 | 0.91 | 49 | 85 | 3920 | CN1CCC[C@H]1CCN(Cc1ccc(Cl)cc1)Cc1ccc(O)cc1Cl [Example 39] | – | –
22 | 1110 | 6.5 | 132 | 23 | > 4000 | CSc1ccc(CN(CC[C@@H]2CCCN2C)Cc2ccc(Cl)cc2)cc1 [Example 40] | – | –
23 | 1480 | 6.6 | 83 | 39 | > 4000 | COc1cccc(CN(CC[C@@H]2CCCN2C)Cc2ccc(Cl)cc2)c1 [Example 41] | – | –
24 | > 2500 | 21 | 54 | 88 | > 4000 | Cc1cc(CN(CC[C@@H]2CCCN2C)Cc2ccc(Cl)cc2)oc1C [Example 42] | – | –
25 | – | 180 | – | – | – | CN1CCC[C@H]1CCN(Cc1ccc(Cl)cc1)CC1CC=CCC1 (stereo partly shown) [Example 43] | – | –
26 | – | 260 | – | – | – | CN1CCC[C@H]1CCN(Cc1ccc(Cl)cc1)Cc1ccccc1Cl [Example 44] | – | –
27 | 250 | 12 | 38 | 27 | > 4000 | CN1CCC[C@H]1CCN(Cc1ccc(Cl)cc1)Cc1ccc2c(c1)Cc1ccccc1-2 [Example 45] | – | –
28 | 1110 | 80 | 350 | 42 | 3850 | CC(C)c1ccc(CN(CC[C@@H]2CCCN2C)Cc2ccc(Cl)cc2)cc1 [Example 46] | – | –
29 | – | 200 | – | – | – | CN1CCC[C@H]1CCN(Cc1ccc(Cl)cc1)Cc1ccc(O)c([N+](=O)[O-])c1 [Example 51] | – | –
30 | 1110 | 27 | 310 | 76 | > 4000 | Cc1c(CN(CC[C@@H]2CCCN2C)Cc2ccc(Cl)cc2)sc2ccccc12 [Example 52] | – | –
31 | – | 161 | – | – | – | C[C@H](CN(CC[C@@H]1CCCN1C)Cc1ccc(Cl)cc1)c1ccccc1 [Example 53] | – | –
32 | – | 170 | – | – | – | CN1CCC[C@H]1CN(Cc1ccccc1)Cc1ccccc1 [Example 55, (S)-Di-(benzyl)-2-aminomethyl-N-methylpyrrolidine] | – | –

Row | Molecule | Ki [1] [nM] | Ki [2] [nM] | Ki [3] [nM] | Ki (human 5-HT2a receptors) [nM] | Ki (human 5-HT1a receptors) [nM] | Ki [1, 4] [nM] | Ki (human 5-HT2a receptors; [5]) [nM]
33 | CN1CCCC1CCN(Cc1cccc(O)c1)Cc1cccc(O)c1 (racemic) [Example 3] | > 2500 | 49 | 2640 | 2000 | – | – | –
34 | CN1CCCC1CCN(CCc1ccccc1)CCc1ccccc1 (racemic) [Example 8] | – | 3200 | – | – | – | – | –
35 | CN1CCC[C@H]1CCN(Cc1cccc(O)c1)Cc1cccc(O)c1 [Example 2, (S)-Di-(3-hydroxybenzyl)-2-aminoethyl-N-methylpyrrolidine] | – | 9.7 | 640 | – | 3500 | > 2500 | 500
36 | CN1CCC[C@H]1CCN(Cc1ccc(O)cc1)Cc1cccc(O)c1 [Example 20] | > 2500 | 8.8 | 880 | 540 | > 4000 | – | –
37 | CN1CCCC1CCN(Cc1ccccc1)Cc1ccc(C(C)(C)C)cc1 (stereo not shown) [Example 31] | 1210 | 66 | 45 | 130 | – | – | –
38 | Cc1cc(CN(CC[C@@H]2CCCN2C)Cc2cccc(O)c2)cc(C)c1O [Example 35] | > 2500 | 17 | 2710 | 3470 | > 4000 | – | –
39 | COc1ccc(CN(CC[C@@H]2CCCN2C)Cc2cccc(O)c2)cc1 [Example 36] | 2530 | 49 | 1580 | 200 | > 4000 | – | –
40 | CN1CCC[C@H]1CCN(Cc1ccc(C(C)(C)C)cc1)Cc1cccc(O)c1 [Example 37] | 2300 | 66 | 375 | 160 | > 4000 | – | –
41 | CN1CCC[C@H]1CCN(Cc1ccc(Cl)cc1)Cc1ccc(O)c(Cl)c1 [Example 47] | 1010 | 2.7 | 110 | 180 | > 4000 | – | –
42 | Cc1cc(CN(CC[C@@H]2CCCN2C)Cc2ccc(Cl)cc2)cc(C)c1O [Example 48] | > 2500 | 4.2 | 71 | 233 | 3070 | – | –
43 | CN1CCC[C@H]1CCN(Cc1ccc(O)cc1)Cc1ccc(Cl)cc1 [Example 49] | 1310 | 1.9 | 177 | 148 | > 4000 | – | –
44 | COc1cc(CN(CC[C@@H]2CCCN2C)Cc2ccc(Cl)cc2)ccc1O [Example 50] | > 2500 | 3.2 | 280 | 180 | > 4000 | – | –
45 | CCN1CCC[C@H]1CCN(Cc1ccc(C)cc1)Cc1ccc(C)cc1 [Example 54, (S)-Di-(4-methylbenzyl)aminoethyl-N-ethylpyrrolidine] | – | 63 | 300 | – | 610 | 380 | 56
46 | (S)-(3-Hydroxybenzyl)(4-chlorobenzyl)-2-aminoethyl-N-methylpyrrolidine [Example 19] | – | 2.7 | 210 | – | > 4000 | 1580 | 74

From US20060063932A1, “Aminoalkylpyrrolidine serotonin receptor ligands and compositions, their pharmaceutical uses, and methods for their synthesis” (priority 2000, published 2006)
